From US11046662B2, “2-aryl-4-hydroxy-1,3-thiazole derivatives useful as TRPM8-inhibitors in treatment of neuralgia, pain, COPD and asthma” (DOMPÉ FARMACEUTICI S.P.A., priority 2014, dated 2021)

The compounds below were run against human TRPM8 (Homo sapiens (Human), UniProt Q7Z2W7) (assay: HTS cellular-based calcium assay for human TRPM8 antagonists (FLIPR TETRA)). Details: HEK293/hTRPM8 cells, agonist Cooling Agent 10 at EC80, Ca2+ fluorescence.
human TRPM8, sequence (Q7Z2W7 whole entry): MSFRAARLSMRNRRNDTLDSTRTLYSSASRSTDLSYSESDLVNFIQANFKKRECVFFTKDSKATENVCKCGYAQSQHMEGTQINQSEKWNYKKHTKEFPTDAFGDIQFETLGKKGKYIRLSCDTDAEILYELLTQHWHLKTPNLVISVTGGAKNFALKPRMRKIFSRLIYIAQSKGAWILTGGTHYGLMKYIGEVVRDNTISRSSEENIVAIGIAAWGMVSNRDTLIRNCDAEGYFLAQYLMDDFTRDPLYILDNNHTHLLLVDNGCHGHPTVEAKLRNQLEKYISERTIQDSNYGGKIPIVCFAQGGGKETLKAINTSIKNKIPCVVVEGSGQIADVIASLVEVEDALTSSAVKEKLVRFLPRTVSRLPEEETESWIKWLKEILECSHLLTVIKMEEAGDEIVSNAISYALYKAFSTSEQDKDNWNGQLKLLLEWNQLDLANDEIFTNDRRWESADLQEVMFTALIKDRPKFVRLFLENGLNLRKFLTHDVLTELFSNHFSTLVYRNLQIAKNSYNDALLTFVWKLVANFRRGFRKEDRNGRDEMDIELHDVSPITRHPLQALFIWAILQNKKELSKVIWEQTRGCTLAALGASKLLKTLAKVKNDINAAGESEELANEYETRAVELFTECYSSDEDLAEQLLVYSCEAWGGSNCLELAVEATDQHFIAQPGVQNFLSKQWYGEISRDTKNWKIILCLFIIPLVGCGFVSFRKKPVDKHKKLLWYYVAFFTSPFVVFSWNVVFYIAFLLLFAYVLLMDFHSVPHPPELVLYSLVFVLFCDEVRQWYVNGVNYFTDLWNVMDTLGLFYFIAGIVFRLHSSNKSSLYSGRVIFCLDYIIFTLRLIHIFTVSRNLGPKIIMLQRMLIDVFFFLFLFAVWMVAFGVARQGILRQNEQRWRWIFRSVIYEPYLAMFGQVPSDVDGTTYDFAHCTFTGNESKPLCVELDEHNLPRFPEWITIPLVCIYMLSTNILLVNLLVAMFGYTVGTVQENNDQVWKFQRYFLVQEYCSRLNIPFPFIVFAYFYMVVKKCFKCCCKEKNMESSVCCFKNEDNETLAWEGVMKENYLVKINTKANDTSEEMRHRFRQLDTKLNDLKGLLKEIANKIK

| SMILES | IC50 |
| --- | --- |
| CON(C)C(=O)c1sc(-c2cccs2)nc1O [Compound 6, 4-hydroxy-N-methoxy-N-methyl-2-(thiophen-2-yl)-1,3-thiazole-5-carboxamide] | 0.156 µM |
| CCC(=O)c1sc(-c2ccc[nH]2)nc1O [Compound 16, 1-[4-hydroxy-2-(1H-pyrrol-2-yl)-1,3-thiazol-5-yl]propan-1-one] | 0.123 µM |
| CON(C)C(=O)c1sc(-c2ccccc2Br)nc1O [Compound 10, 2-(2-bromophenyl)-4-hydroxy-N-methoxy-N-methyl-1,3-thiazole-5-carboxamide] | 0.435 µM |
| CCC(=O)c1sc(-c2cnn(C)c2)nc1O [Compound 20, 1-[4-hydroxy-2-(1-methyl-1H-pyrazol-4-yl)-1,3-thiazol-5-yl]propan-1-one] | 0.089 µM |
| CCC(=O)c1sc(-c2ccccc2O)nc1O [Compound 13, 1-[2-(2-hydroxyphenyl)-4-hydroxy-1,3-thiazol-5-yl]propan-1-one] | 0.112 µM |
| CCC(=O)c1sc(-c2ncon2)nc1O [Compound 23, 1-[4-hydroxy-2-(1,2,4-oxadiazol-3-yl)-1,3-thiazol-5-yl]propan-1-one] | 0.099 µM |
| CCC(=O)c1sc(-c2cccc(F)c2)nc1O [Compound 1, 1-[2-(3-fluorophenyl)-4-hydroxy-1,3-thiazol-5-yl]propan-1-one] | 0.032 µM |
| CCC(=O)c1sc(-c2ccccc2C)nc1O [Compound 9, 1-[4-hydroxy-2-(2-methylphenyl)-1,3-thiazol-5-yl]propan-1-one] | 0.411 µM |
| CCC(=O)c1sc(-c2cccs2)nc1O [Compound 7, 1-[4-hydroxy-2-(thiophen-2-yl)-1,3-thiazol-5-yl]propan-1-one] | 0.596 µM |
| CC(C)CC(=O)c1sc(-c2cccs2)nc1O [Compound 22, 1-[4-hydroxy-2-(thiophen-2-yl)-1,3-thiazol-5-yl]-3-methylbutan-1-one] | 0.085 µM |
| CCC(=O)c1sc(-c2cccc(Br)c2)nc1O [Compound 14, 1-[2-(3-bromophenyl)-4-hydroxy-1,3-thiazol-5-yl]propan-1-one] | 1.73 µM |
| CCC(=O)c1sc(-c2ccco2)nc1O [Compound 15, 1-[2-(furan-2-yl)-4-hydroxy-1,3-thiazol-5-yl]propan-1-one] | 0.236 µM |
| CC(C)C(=O)c1sc(-c2cccc(F)c2)nc1O [Compound 5, 1-[2-(3-fluorophenyl)-4-hydroxy-1,3-thiazol-5-yl]-2-methylpropan-1-one] | 0.299 µM |
| CCC(=O)c1sc(-c2cnc[nH]2)nc1O [Compound 19, 1-[4-hydroxy-2-(1H-imidazol-5-yl)-1,3-thiazol-5-yl]propan-1-one] | 0.302 µM |
| CC(=O)c1sc(-c2cccc(F)c2)nc1O [Compound 4, 1-(2-(3-fluorophenyl)-4-hydroxythiazol-5-yl)ethanone] | 0.958 µM |
| CCC(=O)c1sc(-c2ccccc2Br)nc1O [Compound 11, 1-[2-(2-bromophenyl)-4-hydroxy-1,3-thiazol-5-yl]propan-1-one] | 0.912 µM |
| CCC(=O)c1sc(-c2cncn2C)nc1O [Compound 18, 1-[4-hydroxy-2-(1-methyl-1H-imidazol-5-yl)-1,3-thiazol-5-yl]propan-1-one] | 0.112 µM |
| CCCC(=O)c1sc(-c2cccs2)nc1O [Compound 21, 1-[4-hydroxy-2-(thiophen-2-yl)-1,3-thiazol-5-yl]butan-1-one] | 0.064 µM |
| CCC(=O)c1sc(-c2cccn2C)nc1O [Compound 17, 1-[4-hydroxy-2-(1-methyl-1H-pyrrol-2-yl)-1,3-thiazol-5-yl]propan-1-one] | 0.323 µM |
| CON(C)C(=O)c1sc(-c2ccccc2C)nc1O [Compound 8, 4-hydroxy-N-methoxy-N-methyl-2-(2-methylphenyl)-1,3-thiazole-5-carboxamide] | 0.086 µM |

The next lines start with the values.

| IC50 | SMILES |
| --- | --- |
| 0.356 µM | CCC(=O)c1sc(-c2cccnc2)nc1O [Compound 25, 1-[4-hydroxy-2-(pyridin-3-yl)-1,3-thiazol-5-yl]propan-1-one] |
| 0.05 µM | CCC(=O)c1sc(-c2ccc(F)cc2)nc1O [Compound 36, 1-[2-(4-fluorophenyl)-4-hydroxy-1,3-thiazol-5-yl]propan-1-one] |
| 0.233 µM | CCC(=O)c1sc(-c2cccc(NC)c2)nc1O [Compound 34, 1-{4-hydroxy-2-[3-(methylamino)phenyl]-1,3-thiazol-5-yl}propan-1-one] |
| 0.287 µM | O=C(c1sc(-c2cccc(F)c2)nc1O)C1CC1 [Compound 45, cyclopropyl[2-(3-fluorophenyl)-4-hydroxy-1,3-thiazol-5-yl]methanone] |
| 0.986 µM | CC/C(=N\OC)c1sc(-c2cccc(F)c2)nc1O [Compound 42, 2-(3-fluorophenyl)-5-[(1E)—N-methoxypropanimidoyl]-1,3-thiazol-4-ol] |
| 0.789 µM | CCC(=O)c1sc(-c2ccc(NC)cc2)nc1O [Compound 35, 1-{4-hydroxy-2-[4-(methylamino)phenyl]-1,3-thiazol-5-yl}propan-1-one] |
| 0.023 µM | CCC(=O)c1sc(-c2cccc(O)c2)nc1O [Compound 28, 1-[4-hydroxy-2-(3-hydroxyphenyl)-1,3-thiazol-5-yl]propan-1-one] |
| 0.45 µM | CCC(=O)c1sc(-c2cccc(N)c2)nc1O [Compound 32, 1-[2-(3-aminophenyl)-4-hydroxy-1,3-thiazol-5-yl]propan-1-one] |
| 0.236 µM | CCC(=S)c1sc(-c2cccc(F)c2)nc1O [Compound 40, 1-[2-(3-fluorophenyl)-4-hydroxy-1,3-thiazol-5-yl]propane-1-thione] |
| 1.36 µM | CC/C(=N\O)c1sc(-c2cccc(F)c2)nc1O [Compound 44, 2-(3-fluorophenyl)-5-[(1E)—N-hydroxypropanimidoyl]-1,3-thiazol-4-ol] |
| 0.632 µM | CCC(=O)c1sc(-c2ccc(N)cc2)nc1O [Compound 33, 1-[2-(4-aminophenyl)-4-hydroxy-1,3-thiazol-5-yl]propan-1-one] |
| 0.123 µM | CCC(=O)c1sc(-c2ccno2)nc1O [Compound 24, 1-[4-hydroxy-2-(1,2-oxazol-5-yl)-1,3-thiazol-5-yl]propan-1-one] |
| 0.231 µM | CCC(=O)c1sc(-c2cccc(C)c2)nc1O [Compound 30, 1-[4-hydroxy-2-(3-methylphenyl)-1,3-thiazol-5-yl]propan-1-one] |
| 0.453 µM | CCC(=O)c1sc(-c2ccncc2)nc1O [Compound 26, 1-[4-hydroxy-2-(pyridin-4-yl)-1,3-thiazol-5-yl]propan-1-one] |
| 0.326 µM | CCC(=O)c1sc(-c2ccc(O)cc2)nc1O [Compound 29, 1-[4-hydroxy-2-(4-hydroxyphenyl)-1,3-thiazol-5-yl]propan-1-one] |
| 0.145 µM | CCC(=O)c1sc(-c2ccccn2)nc1O [Compound 27, 1-[4-hydroxy-2-(pyridin-2-yl)-1,3-thiazol-5-yl]propan-1-one] |
| 0.523 µM | COCC(=O)c1sc(-c2cccc(F)c2)nc1O [Compound 39, 1-[2-(3-fluorophenyl)-4-hydroxy-1,3-thiazol-5-yl]-2-methoxyethanone] |
| 1.21 µM | CCC(=N)c1sc(-c2cccc(F)c2)nc1O [Compound 43, 2-(3-fluorophenyl)-5-propanimidoyl-1,3-thiazol-4-ol] |
| 0.236 µM | CCC(=O)c1sc(-c2ccc(C)cc2)nc1O [Compound 31, 1-[4-hydroxy-2-(4-methylphenyl)-1,3-thiazol-5-yl]propan-1-one] |
